Key:
[1] = molecular target: T1, WT STING (truncated human WT STING protein) (Homo sapiens, UniProt Q86WV6, H232R); experiment: Differential Scanning Fluorimetry with WT STING; type: binding; conditions: thermal shift vs apoprotein, 150 μM CDN, 0.1 mg/ml STING protein, SYPRO Orange; for ΔTm at 150 µM: read-out: DSF ΔTm (° C.) WT STING
T1 construct: truncated human WT STING or AQ STING (amino acid residues 140-343); 8xHis (N, cleaved yes); SUMO (N, cleaved yes); made in house; host or cells: E. coli Rosetta-gami B (DE3)
Procedure: (§1) Purified PCR products were cleaved with restriction enzymes BamHI (cat. #R0136S, NEB, Ipswich, USA) and NotI (cat. #R0189S, NEB, Ipswich, USA) and cloned into the pSUMO vector linearized with the identical enzymes.
(§2) DNase I (cat. #D5025, Sigma Aldrich, Czech Republic) and RNase A (cat. #R6513, Sigma Aldrich, Czech Republic) were added (final concentration […]) together with MgCl2 (final concentration 5 mmol·l^−1) to the homogenate and bacteria were lysed using French Press G-M™ High-Pressure Cell Press Homogenizer (1500 psi, 3 cycles). […] The resin was poured into a chromatography column, washed with 50 ml buffer A (50 mmol·l^−1 TrisCl (pH 8.0), 800 mmol·l^−1 NaCl, 3 mmol·l^−1β-mercaptoethanol; 10% glycerol; 20 mmol·l^−1 imidazole) and 8-His-SUMO tagged STING proteins were eluted with 15 ml buffer A containing 300 mmol·l^−1 imidazole. […] Proteins were concentrated with Amicon® Ultra-15 10 K device (cat. #UFC901008, Merck Millipore, Billerica, USA) and flash frozen in liquid N2.
(§3) Differential Scanning Fluorimetry with WT STING and AQ STING
(§4) 20 μL solutions of the reaction mixtures were pipetted in triplicates into 96 well optical reaction plates and thermal denaturation of samples were performed on real time PCR cycler (LightCycler® 480 Instrument II—Roche, Base^1, Switzerland). The first derivative of the thermal denaturation curves was performed to calculate denaturing temperatures of STING-CDN complexes and STING apoproteins. The thermal shift for each CDN was calculated by subtracting the average denaturing temperature of STING apoprotein from the average denaturing temperature of STING CDN complex.

[2] = molecular target: T2, AQ STING (truncated human STING G230A-R293Q allelic form) (Homo sapiens, UniProt Q86WV6, G230A/H232R/R293Q); experiment: Differential Scanning Fluorimetry with AQ STING; type: binding; conditions: thermal shift vs apoprotein, 150 μM CDN, 0.1 mg/ml STING protein, SYPRO Orange; for ΔTm at 150 µM: read-out: DSF ΔTm (° C.) AQ STING
T2 construct: truncated human WT STING or AQ STING (amino acid residues 140-343); 8xHis (N, cleaved yes); SUMO (N, cleaved yes); made in house; host or cells: E. coli Rosetta-gami B (DE3)
Procedure: as §1, §2, §3, §4

[3] = molecular target: human wild type STING (WT STING) (Homo sapiens, UniProt Q86WV6, H232R); experiment: Digitonin assay using 293T wtSTING-FL reporter cells (ISRE firefly luciferase reporter); type: cell-based; conditions: 293T wtSTING-FL cells; 30 min in Digitonin buffer, then 5 hours; luciferase read-out; 8-point dose-response curve; read-out: Digitonin assay EC50 (μmol · l^−1) WT STING
Description: Two complementary oligonucleotides of the sequence […] […] […] […] […] The oligonucleotides were mixed in equal molar amounts, hybridized, and cleaved by restriction endonucleases HindIII (cat. #. R0104S, NEB, Ipswich, USA) and BglII (cat. #R0144S, NEB, Ipswich, USA). Ultimately, they were ligated into plasmid pGL4.27 (cat. #E6651, Promega, Madison, USA) linearized with the same enzymes. As result the sequence with four ISRE sites was placed upstream of the minimum promoter of firefly luciferase reporter gene.
After 5 minutes incubation at room temperature (RT), 250 μL of the mixture was added dropwise to the cells in one well.
Transfected cells were seeded onto poly-D-lysine coated six well plates at density 50,000 cells per 1 cm^2 in DMEM medium with high glucose containing 10% heat inactivated FBS, 30 μg/mL blasticidin (cat. #ant-bl-05, InvivoGen, San Diego, USA), 0.06 mg/ml Penicillin G and 0.1 mg/ml Streptomycin Sulfate (both cat. #. L0018, Biowest, Riverside, USA). The medium was replenished every 3-4 days until visible colonies of cells resistant to blasticidin were formed.
Blasticidin resistant cells stably expressing WT STING were further transfected with […] plasmid following the same procedure as described above. […] Homogeneous culture of stably double transfected cells was prepared by limiting dilution of cells in 96 well plates and wells with cells were selected that originated from a single cell.
The medium was removed next day and three fold serial dilutions of compounds in Digitonin buffer containing 50 mmol·l^−1 HEPES (cat. #H3375, Sigma Aldrich, Czech Republic) pH 7.0, 100 mmol·l^−1 KCl, 3 mmol·l^−1 MgCl2, 0.1 mmol·l^−1 DTT (cat. #D0632, Sigma Aldrich, Czech Republic), 85 mmol·l^−1 Sucrose (cat. #S7903, Sigma Aldrich, Czech Republic), 0.2% BSA (cat. #A2153, Sigma Aldrich, Czech Republic), 1 mmol·l^−1 ATP (cat. #A1852, Sigma Aldrich, Czech Republic), 0.1 mmol·l^−1 GTP (cat. #G8877, Sigma Aldrich, Czech Republic), and 10 μg/mL Digitonin A (cat. #D141, Sigma Aldrich, Czech Republic) were added to the cells. The buffer was removed after 30 minutes incubation at 37° C. with 5% CO2, the cells were washed once with 100 μl of cultivation medium, and 100 IA of medium was added to each well. The plates with cells were incubated for 5 hours at 37° C. with 5% CO2, 50 μl of the medium was removed and 30 μl of ONE-Glo™ Luciferase Assay System reagent (cat. #E6120, Promega, Madison, USA) was added to each well. Luminesce was read on Synergy H1 (Biotek, Winooski, USA).

Sequence of human wild type STING (WT STING) (Q86WV6 whole entry H232R): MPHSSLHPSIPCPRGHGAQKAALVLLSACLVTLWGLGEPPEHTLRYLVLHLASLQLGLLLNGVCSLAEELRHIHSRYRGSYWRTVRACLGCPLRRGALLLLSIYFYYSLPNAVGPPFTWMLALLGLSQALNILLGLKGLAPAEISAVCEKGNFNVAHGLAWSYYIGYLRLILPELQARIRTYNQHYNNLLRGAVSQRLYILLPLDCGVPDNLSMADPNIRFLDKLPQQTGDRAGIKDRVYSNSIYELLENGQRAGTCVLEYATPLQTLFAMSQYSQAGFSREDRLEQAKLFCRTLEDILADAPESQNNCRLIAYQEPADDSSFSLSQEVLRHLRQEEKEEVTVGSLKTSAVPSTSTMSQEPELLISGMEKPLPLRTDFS
T2 sequence (Q86WV6 140-343 G230A/H232R/R293Q): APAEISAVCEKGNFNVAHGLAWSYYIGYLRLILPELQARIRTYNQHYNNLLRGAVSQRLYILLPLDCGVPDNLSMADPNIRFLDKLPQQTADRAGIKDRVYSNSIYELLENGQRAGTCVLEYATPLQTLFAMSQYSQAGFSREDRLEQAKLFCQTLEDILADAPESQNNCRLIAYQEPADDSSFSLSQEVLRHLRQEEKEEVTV
T1 sequence (Q86WV6 140-343 H232R): as the sequence (Q86WV6 140-343 G230A/H232R/R293Q) above, with A91G, Q154R counted along it

| ΔTm at 150 µM [1] [°C] | ΔTm at 150 µM [2] [°C] | EC50 [3] [nM] | DSF ΔTm (° C.) WT STING [1] [°C] | DSF ΔTm (° C.) AQ STING [2] [°C] | SMILES |
| --- | --- | --- | --- | --- | --- |
| 17.2 | 23.5 | 5 |  |  | Nc1nc2c(ncn2[C@@H]2O[C@@H]3COP(=O)(O)CO[C@H]4C[C@H](n5cnc6c(N)ncnc65)O[C@@H]4COP(=O)(O)O[C@@H]2[C@@H]3F)c(=O)[nH]1 [Example 20, (1S,6R,8R,10S,16R,18R,19R)-18-(2-amino-6-oxo-6,9-dihydro-1H-purin-9-yl)-8-(6-amino-9H-purin-9-yl)-19-fluoro-3,13-dihydroxy-2,4,7,11,14,17-hexaoxa-3λ^5,13λ^5-diphosphatricyclo[14.2.1.0^6,^10]nonadecane-3,13-dione] |
| 1.8 | 8.9 | 6100 |  |  | Nc1nc2c(ncn2[C@@H]2O[C@@H]3COP(=O)(O)CO[C@@H]4[C@H](O)[C@@H](COP(=O)(O)O[C@H]3[C@H]2F)O[C@H]4n2cnc3c(N)ncnc32)c(=O)[nH]1 [Example 7, (1R,6R,7R,8R,10R,16R,17R,19R)-8-(2-amino-6-oxo-6,9-dihydro-1H-purin-9-yl)-17-(6-amino-9H-purin-9-yl)-7-fluoro-4,13,19-trihydroxy-3,5,9,12,15,18-hexaoxa-4λ^5,13λ^5-diphosphatricyclo[14.2.1.0^6,^10]nonadecane-4,13-dione] |
| 0 | 0 | > 50000 |  |  | Nc1ncnc2c1ncn2[C@@H]1O[C@@H]2COP(=O)(O)CO[C@@H]3[C@@H](O)[C@@H](COP(=O)(O)CO[C@@H]2[C@H]1O)O[C@H]3n1cnc2c(N)ncnc21 [Example 12, (1R,7R,9R,10R,11R,17R,19R,20S)-9,19-bis(6-amino-9H-purin-9-yl)-4,10,14,20-tetrahydroxy-2,5,8,12,15,18-hexaoxa-4λ^5,14λ^5-diphosphatricyclo[15.2.1.0^7,^11]icosane-4,14-dione] |
| 19 | 23.9 | 20 |  |  | Nc1nc2c(ncn2[C@@H]2O[C@@H]3COP(=O)(O)CO[C@H]4[C@@H](F)[C@H](n5cnc6c(N)ncnc65)O[C@@H]4COP(=O)(O)O[C@@H]2C3)c(=O)[nH]1 [Example 18, (1R,6R,8R,9R,10R,16S,18R)-18-(2-amino-6-oxo-6,9-dihydro-1H-purin-9-yl)-8-(6-amino-9H-purin-9-yl)-9-fluoro-3,13-dihydroxy-2,4,7,11,14,17-hexaoxa-3λ^5,13λ^5-diphosphatricyclo[14.2.1.0^6,^10]nonadecane-3,13-dione] |

The remaining lines, values behind:

| SMILES | ΔTm at 150 µM [1] [°C] | ΔTm at 150 µM [2] [°C] | EC50 [3] [nM] | DSF ΔTm (° C.) WT STING [1] [°C] | DSF ΔTm (° C.) AQ STING [2] [°C] |
| --- | --- | --- | --- | --- | --- |
| Nc1nc2c(ncn2[C@@H]2O[C@@H]3COP(=O)(O)CO[C@H]4[C@@H](F)[C@H](n5cnc6c(N)ncnc65)O[C@@H]4COP(=O)(O)O[C@@H]2[C@@H]3O)c(=O)[nH]1 [Example 10, (1R,6R,8R,9R,10R,16R,18R,19R)-18-(2-amino-6-oxo-6,9-dihydro-1H-purin-9-yl)-8-(6-amino-9H-purin-9-yl)-9-fluoro-3,13,19-trihydroxy-2,4,7,11,14,17-hexaoxa-3λ^5,13λ^5-diphosphatricyclo[14.2.1.0^6,^10]nonadecane-3,13-dione] | 20.9 | 27 | 20 |  |  |
| Nc1ncnc2c1ncn2[C@@H]1O[C@@H]2COP(=O)(O)O[C@@H]3[C@H](F)[C@@H](COP(=O)(O)CO[C@H]2[C@H]1F)O[C@H]3n1cnc2c(=O)[nH]cnc21 [Example 24] | 20.4 | 25.7 | 20 |  |  |
| Nc1ncnc2c1ncn2[C@@H]1O[C@@H]2COP(=O)(O)O[C@H]3[C@@H](O)[C@H](n4cnc5c(N)ncnc54)O[C@@H]3COP(=O)(O)O[C@H]2[C@H]1O [3′3′-c-di-AMP, reference compound] |  |  | 300 | 2.6 | 9.3 |
| Nc1ncnc2c1ncn2[C@@H]1O[C@@H]2COP(=O)(O)O[C@@H]3[C@H](O)[C@@H](COP(=O)(O)CO[C@H]2[C@@H]1O)O[C@H]3n1cnc2c(N)ncnc21 [Example 11, (1R,6R,8R,9S,10S,16R,18R,19R)-8,18-bis(6-amino-9H-purin-9-yl)-3,9,13,19-tetrahydroxy-2,4,7,11,14,17-hexaoxa-3λ^5,13λ^5-diphosphatricyclo[14.2.1.0^6,^10]nonadecane-3,13-dione] | 2.3 | 9.1 | 2500 |  |  |

Source: patent US11149052B2, “2′3′-cyclic dinucleotides” (Institute of Organic Chemistry and Biochemistry, ASCR, V.V.I, priority 2018, dated 2021)
